Source: US20250115600A1, “COVALENT MODIFIERS OF AKT1 AND USES THEREOF” (Terremoto Biosciences, Inc., priority 2022, published 2025)
Each block holds one compound with its values, some of them ahead of it.

Tests used:
Test in all cases: Live cell target engagement (NanoBRET) in HEK293 cells
Assay type in all cases: cell-based
AKT1 E17K = AKT1 E17K (Homo sapiens (Human), UniProt P31749, E17K); details: for IC50: HEK293, 2 hours at 37° C.
AKT1 WT = AKT1 WT (Homo sapiens (Human), UniProt P31749); details: HEK293, 2 hours at 37° C.
AKT2 = AKT2 (Homo sapiens (Human), UniProt P31751); details: HEK293, 2 hours at 37° C.
AKT2, sequence (P31751 whole entry): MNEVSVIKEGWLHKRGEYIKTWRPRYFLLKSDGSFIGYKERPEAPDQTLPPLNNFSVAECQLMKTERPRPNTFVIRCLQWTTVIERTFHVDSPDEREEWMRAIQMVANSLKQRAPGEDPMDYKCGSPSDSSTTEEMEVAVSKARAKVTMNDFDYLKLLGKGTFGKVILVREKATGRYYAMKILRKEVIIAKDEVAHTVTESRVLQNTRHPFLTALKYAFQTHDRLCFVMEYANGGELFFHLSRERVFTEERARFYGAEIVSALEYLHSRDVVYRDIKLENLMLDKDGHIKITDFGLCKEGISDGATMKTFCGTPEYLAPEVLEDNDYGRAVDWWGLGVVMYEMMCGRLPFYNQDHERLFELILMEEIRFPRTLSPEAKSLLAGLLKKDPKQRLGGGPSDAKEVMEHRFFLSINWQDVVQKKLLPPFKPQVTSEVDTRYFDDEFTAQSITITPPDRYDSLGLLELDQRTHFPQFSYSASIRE

AKT1 E17K, sequence (P31749 whole entry E17K): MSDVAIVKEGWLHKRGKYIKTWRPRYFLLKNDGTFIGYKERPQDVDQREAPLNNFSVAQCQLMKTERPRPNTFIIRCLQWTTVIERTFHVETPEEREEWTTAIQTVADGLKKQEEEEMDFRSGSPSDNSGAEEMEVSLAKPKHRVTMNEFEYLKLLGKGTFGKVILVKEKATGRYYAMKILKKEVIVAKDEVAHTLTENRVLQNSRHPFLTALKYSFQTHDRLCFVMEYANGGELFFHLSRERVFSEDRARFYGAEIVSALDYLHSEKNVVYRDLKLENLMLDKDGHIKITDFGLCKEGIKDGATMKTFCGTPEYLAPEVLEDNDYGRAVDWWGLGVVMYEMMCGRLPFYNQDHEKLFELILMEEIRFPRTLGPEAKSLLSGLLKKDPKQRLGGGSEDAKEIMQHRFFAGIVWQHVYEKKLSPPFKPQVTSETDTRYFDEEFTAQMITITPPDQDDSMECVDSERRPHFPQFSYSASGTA
AKT1 WT, sequence (P31749 whole entry): as the sequence (P31749 whole entry E17K) above, with K17E counted along it

SMILES: Nc1ncccc1-c1nc2cccnc2n1-c1ccc(CNC(=O)c2ccc(C=O)c(O)c2)cc1 [Compound 84, N-({4-[2-(2-aminopyridin-3-yl)imidazo[4,5-b]pyridin-3-yl]phenyl}methyl)-4-formyl-3-hydroxybenzamide]
AKT1 E17K IC50: Selectivity vs AKT1 WT (AKT1 E17K): 0.22
AKT1 E17K IC50: Selectivity vs AKT2 (AKT1 E17K): 4.8
IC50 (AKT1 E17K): > 500 nM
IC50 (AKT1 WT): 100 to 500 nM
IC50 (AKT2): > 500 nM

SMILES: Nc1ncccc1-c1nc2ccc(-c3ccccc3)nc2n1-c1ccc(CNC(=O)c2ccc(C=O)c(O)c2F)cc1 [Compound 85, N-({4-[2-(2-aminopyridin-3-yl)-5-phenylimidazo[4,5-b]pyridin-3-yl]phenyl}methyl)-2-fluoro-4-formyl-3-hydroxybenzamide]
AKT1 E17K IC50: Selectivity vs AKT1 WT (AKT1 E17K): 1.3
AKT1 E17K IC50: Selectivity vs AKT2 (AKT1 E17K): 6.5
IC50 (AKT1 E17K): < 100 nM
IC50 (AKT1 WT): < 100 nM
IC50 (AKT2): 100 to 500 nM

SMILES: Nc1ncccc1-c1nc2cccnc2n1-c1ccc(CCC(=O)Nc2ccc(C=O)c(O)c2)cc1 [Compound 86, 3-(4-(2-(2-aminopyridin-3-yl)-3H-imidazo[4,5-b]pyridin-3-yl)phenyl)-N-(4-formyl-3-hydroxyphenyl)propanamide]
AKT1 E17K IC50: Selectivity vs AKT1 WT (AKT1 E17K): 25
AKT1 E17K IC50: Selectivity vs AKT2 (AKT1 E17K): 74
IC50 (AKT1 E17K): < 100 nM
IC50 (AKT1 WT): > 500 nM
IC50 (AKT2): > 500 nM

SMILES: Nc1ncccc1-c1nc2ccc(-c3ccccc3)nc2n1-c1ccc(CNc2cc(-c3ccc(C=O)c(O)c3)ccn2)cc1 [Compound 87, 4-(2-((4-(2-(2-aminopyridin-3-yl)-5-phenyl-3H-imidazo[4,5-b]pyridin-3-yl)benzyl)amino)pyridin-4-yl)-2-hydroxybenzaldehyde]
AKT1 E17K IC50: Selectivity vs AKT1 WT (AKT1 E17K): 0.72
AKT1 E17K IC50: Selectivity vs AKT2 (AKT1 E17K): 1.6
IC50 (AKT1 E17K): > 500 nM
IC50 (AKT1 WT): > 500 nM
IC50 (AKT2): > 500 nM

SMILES: C[C@H](NCCc1ccc(O)c(C=O)c1)c1ccc(-n2c(-c3cccnc3N)nc3ccc(-c4ccccc4)nc32)cc1 [Compound 92, 5-(2-{[(1S)-1-{4-[2-(2-aminopyridin-3-yl)-5-phenylimidazo[4,5-b]pyridin-3-yl]phenyl}ethyl]amino}ethyl)-2-hydroxybenzaldehyde]
AKT1 E17K IC50: Selectivity vs AKT1 WT (AKT1 E17K): 0.26
AKT1 E17K IC50: Selectivity vs AKT2 (AKT1 E17K): 0.75
IC50 (AKT1 E17K): 100 to 500 nM
IC50 (AKT1 WT): 100 to 500 nM
IC50 (AKT2): 100 to 500 nM

SMILES: Nc1ncccc1-c1nc2cccnc2n1-c1ccc(CNC(=O)Cc2ccc(C=O)c(O)c2F)cc1 [Compound 93, N-({4-[2-(2-aminopyridin-3-yl)imidazo[4,5-b]pyridin-3-yl]phenyl}methyl)-2-(2-fluoro-4-formyl-3-hydroxyphenyl)acetamide]
AKT1 E17K IC50: Selectivity vs AKT1 WT (AKT1 E17K): 3.9
AKT1 E17K IC50: Selectivity vs AKT2 (AKT1 E17K): 50
IC50 (AKT1 E17K): < 100 nM
IC50 (AKT1 WT): 100 to 500 nM
IC50 (AKT2): > 500 nM

SMILES: COc1cc(CCNCc2ccc(-n3c(-c4cccnc4N)nc4ccc(-c5ccccc5)nc43)cc2)ccc1C=O [Compound 97, 4-{2-[({4-[2-(2-aminopyridin-3-yl)-5-phenylimidazo[4,5-b]pyridin-3-yl]phenyl}methyl)amino]ethyl}-2-methoxybenzaldehyde]
AKT1 E17K IC50: Selectivity vs AKT1 WT (AKT1 E17K): 0.56
AKT1 E17K IC50: Selectivity vs AKT2 (AKT1 E17K): 1.9
IC50 (AKT1 E17K): < 100 nM
IC50 (AKT1 WT): < 100 nM
IC50 (AKT2): 100 to 500 nM

SMILES: CC(=O)Nc1cc(CCNCc2ccc(-n3c(-c4cccnc4N)nc4cccnc43)cc2)ccc1C=O [Compound 98, N-(5-{2-[({4-[2-(2-aminopyridin-3-yl)imidazo[4,5-b]pyridin-3-yl]phenyl}methyl)amino]ethyl}-2-formylphenyl)acetamide]
AKT1 E17K IC50: Selectivity vs AKT1 WT (AKT1 E17K): 2.5
AKT1 E17K IC50: Selectivity vs AKT2 (AKT1 E17K): 38
IC50 (AKT1 E17K): < 100 nM
IC50 (AKT1 WT): < 100 nM
IC50 (AKT2): > 500 nM

SMILES: Nc1ncccc1-c1nc2ccc(Cl)nc2n1-c1ccc(CNCCc2ccc(C=O)c(O)c2)cc1 [Compound 99, 4-{2-[({4-[2-(2-aminopyridin-3-yl)-5-chloroimidazo[4,5-b]pyridin-3-yl]phenyl}methyl)amino]ethyl}-2-hydroxybenzaldehyde]
AKT1 E17K IC50: Selectivity vs AKT1 WT (AKT1 E17K): 3.7
AKT1 E17K IC50: Selectivity vs AKT2 (AKT1 E17K): 8.4
IC50 (AKT1 E17K): < 100 nM
IC50 (AKT1 WT): 100 to 500 nM
IC50 (AKT2): > 500 nM

SMILES: CS(=O)(=O)Nc1cccc(-c2ccc3nc(-c4cccnc4N)n(-c4ccc(CNCCc5ccc(C=O)c(O)c5)cc4)c3n2)c1 [Compound 101, N-{3-[2-(2-aminopyridin-3-yl)-3-[4-({[2-(4-formyl-3-hydroxyphenyl)ethyl]amino}methyl)phenyl]imidazo[4,5-b]pyridin-5-yl]phenyl}methanesulfonamide]
AKT1 E17K IC50: Selectivity vs AKT1 WT (AKT1 E17K): 1.8
AKT1 E17K IC50: Selectivity vs AKT2 (AKT1 E17K): 5.9
IC50 (AKT1 E17K): < 100 nM
IC50 (AKT1 WT): < 100 nM
IC50 (AKT2): 100 to 500 nM

SMILES: Nc1ncccc1-c1nc2ccc(-c3ccccn3)nc2n1-c1ccc(CNCCc2ccc(C=O)c(O)c2)cc1 [Compound 103, 4-{2-[({4-[2-(2-aminopyridin-3-yl)-5-(pyridin-2-yl)imidazo[4,5-b]pyridin-3-yl]phenyl}methyl)amino]ethyl}-2-hydroxybenzaldehyde]
AKT1 E17K IC50: Selectivity vs AKT1 WT (AKT1 E17K): 2.5
AKT1 E17K IC50: Selectivity vs AKT2 (AKT1 E17K): 11
IC50 (AKT1 E17K): < 100 nM
IC50 (AKT1 WT): < 100 nM
IC50 (AKT2): 100 to 500 nM

SMILES: Nc1ncccc1-c1nc2ccc(-c3ccccc3)nc2n1-c1ccc(C(=O)NCC#Cc2ccc(C=O)c(O)c2)cc1 [Compound 104, 4-(2-(2-aminopyridin-3-yl)-5-phenyl-3H-imidazo[4,5-b]pyridin-3-yl)-N-(3-(4-formyl-3-hydroxyphenyl)prop-2-yn-1-yl)benzamide]
AKT1 E17K IC50: Selectivity vs AKT1 WT (AKT1 E17K): 0.72
AKT1 E17K IC50: Selectivity vs AKT2 (AKT1 E17K): 1
IC50 (AKT1 E17K): > 500 nM
IC50 (AKT1 WT): > 500 nM
IC50 (AKT2): > 500 nM

SMILES: C[C@@H](NCCc1ccc(O)c(C=O)c1)c1ccc(-n2c(-c3cccnc3N)nc3ccc(-c4ccccc4)nc32)cc1 [Compound 105, (R)-5-(2-((1-(4-(2-(2-aminopyridin-3-yl)-5-phenyl-3H-imidazo[4,5-b]pyridin-3-yl)phenyl)ethyl)amino)ethyl)-2-hydroxybenzaldehyde]
AKT1 E17K IC50: Selectivity vs AKT1 WT (AKT1 E17K): 1
AKT1 E17K IC50: Selectivity vs AKT2 (AKT1 E17K): >1.0
IC50 (AKT1 E17K): > 500 nM
IC50 (AKT1 WT): > 500 nM
IC50 (AKT2): > 500 nM

SMILES: Nc1ncccc1-c1nc2ccc(-c3ccccc3)nc2n1-c1ccc(S(=O)(=O)NCCc2ccc(C=O)c(O)c2)cc1 [Compound 106, 4-[2-(2-aminopyridin-3-yl)-5-phenylimidazo[4,5-b]pyridin-3-yl]-N-[2-(4-formyl-3-hydroxyphenyl)ethyl]benzenesulfonamide]
AKT1 E17K IC50: Selectivity vs AKT1 WT (AKT1 E17K): 0.85
AKT1 E17K IC50: Selectivity vs AKT2 (AKT1 E17K): 0.91
IC50 (AKT1 E17K): > 500 nM
IC50 (AKT1 WT): > 500 nM
IC50 (AKT2): > 500 nM

SMILES: Nc1ncccc1-c1nc2ccc(-c3cccc(N4CCOCC4)c3)nc2n1-c1ccc(CNCCc2ccc(C=O)c(O)c2)cc1 [Compound 108, 4-(2-((4-(2-(2-aminopyridin-3-yl)-5-(3-morpholinophenyl)-3H-imidazo[4,5-b]pyridin-3-yl)benzyl)amino)ethyl)-2-hydroxybenzaldehyde]
AKT1 E17K IC50: Selectivity vs AKT1 WT (AKT1 E17K): 1.2
AKT1 E17K IC50: Selectivity vs AKT2 (AKT1 E17K): 2.1
IC50 (AKT1 E17K): < 100 nM
IC50 (AKT1 WT): < 100 nM
IC50 (AKT2): < 100 nM

More lines, now with the values ahead:

AKT1 E17K IC50: Selectivity vs AKT1 WT (AKT1 E17K): 3.9
AKT1 E17K IC50: Selectivity vs AKT2 (AKT1 E17K): 55
IC50 (AKT1 E17K): < 100 nM
IC50 (AKT1 WT): < 100 nM
IC50 (AKT2): 100 to 500 nM
SMILES: Nc1ncccc1-c1nc2ccc(-c3cccnc3)nc2n1-c1ccc(CNCCc2ccc(C=O)c(O)c2F)cc1 [Compound 88, 4-(2-((4-(2-(2-aminopyridin-3-yl)-5-(pyridin-3-yl)-3H-imidazo[4,5-b]pyridin-3-yl)benzyl)amino)ethyl)-3-fluoro-2-hydroxybenzaldehyde]

AKT1 E17K IC50: Selectivity vs AKT1 WT (AKT1 E17K): 0.14
AKT1 E17K IC50: Selectivity vs AKT2 (AKT1 E17K): 2.1
IC50 (AKT1 E17K): > 500 nM
IC50 (AKT1 WT): 100 to 500 nM
IC50 (AKT2): > 500 nM
SMILES: CC(=O)Nc1c(C=O)ccc(CCNCc2ccc(-n3c(-c4cccnc4N)nc4cccnc43)cc2)c1F [Compound 89, N-(3-{2-[({4-[2-(2-aminopyridin-3-yl)imidazo[4,5-b]pyridin-3-yl]phenyl}methyl)amino]ethyl}-2-fluoro-6-formylphenyl)acetamide]

AKT1 E17K IC50: Selectivity vs AKT1 WT (AKT1 E17K): 0.65
AKT1 E17K IC50: Selectivity vs AKT2 (AKT1 E17K): 1.6
IC50 (AKT1 E17K): < 100 nM
IC50 (AKT1 WT): < 100 nM
IC50 (AKT2): < 100 nM
SMILES: CC(=O)Nc1c(C=O)ccc(CCNCc2ccc(-n3c(-c4cccnc4N)nc4ccc(-c5ccccc5)nc43)cc2)c1F [Compound 90, N-(3-{2-[({4-[2-(2-aminopyridin-3-yl)-5-phenylimidazo[4,5-b]pyridin-3-yl]phenyl}methyl)amino]ethyl}-2-fluoro-6-formylphenyl)acetamide]

AKT1 E17K IC50: Selectivity vs AKT1 WT (AKT1 E17K): 1.8
AKT1 E17K IC50: Selectivity vs AKT2 (AKT1 E17K): 2.5
IC50 (AKT1 E17K): > 500 nM
IC50 (AKT1 WT): > 500 nM
IC50 (AKT2): > 500 nM
SMILES: Nc1ncccc1-c1nc2cccnc2n1-c1ccc(CNCCc2ccc(C=O)c(O)c2F)cc1 [Compound 95, 4-(2-((4-(2-(2-aminopyridin-3-yl)-3H-imidazo[4,5-b]pyridin-3-yl)benzyl)amino)ethyl)-3-fluoro-2-hydroxybenzaldehyde]

AKT1 E17K IC50: Selectivity vs AKT1 WT (AKT1 E17K): 1.9
AKT1 E17K IC50: Selectivity vs AKT2 (AKT1 E17K): 13
IC50 (AKT1 E17K): 100 to 500 nM
IC50 (AKT1 WT): 100 to 500 nM
IC50 (AKT2): > 500 nM
SMILES: CN(C(=O)CCc1ccc(C=O)c(O)c1)c1ccc(-n2c(-c3cccnc3N)nc3ccc(-c4ccccc4)nc32)cc1 [Compound 100, N-(4-(2-(2-aminopyridin-3-yl)-5-phenyl-3H-imidazo[4,5-b]pyridin-3-yl)phenyl)-3-(4-formyl-3-hydroxyphenyl)-N-methylpropanamide]

AKT1 E17K IC50: Selectivity vs AKT1 WT (AKT1 E17K): 1.1
AKT1 E17K IC50: Selectivity vs AKT2 (AKT1 E17K): 2
IC50 (AKT1 E17K): 100 to 500 nM
IC50 (AKT1 WT): 100 to 500 nM
IC50 (AKT2): > 500 nM
SMILES: CC(=O)Nc1cccc(-c2ccc3nc(-c4cccnc4N)n(-c4ccc(CNCCc5ccc(C=O)c(O)c5F)cc4)c3n2)c1 [Compound 102, N-{3-[2-(2-aminopyridin-3-yl)-3-[4-({[2-(2-fluoro-4-formyl-3-hydroxyphenyl)ethyl]amino}methyl)phenyl]imidazo[4,5-b]pyridin-5-yl]phenyl}acetamide]
